# Measurements reported in patent publication US11337916B2, “Myrciaria dubia fruit extracts rich in organic acids, cosmetic compositions comprising same and cosmetic uses thereof” (ISP INVESTMENTS LLC, priority 2018, dated 2022).
# Key:
# [1] = system: reconstructed epidermis; experiment: Morphology of reconstructed epidermis in tired condition (rotenone), haematoxylin-eosin staining; type: cell-based, human; settings: rotenone added on day 12 of reconstruction, 3 h incubation
# Description: The aim of this study is to create a model of reconstructed “tired” human skin. To do this, the skin is reconstructed using adult donor keratinocytes and a respiratory chain inhibitor (rotenone) to create a lack of energy.
# The use of a respiratory chain inhibitor such as rotenone creates mitochondrial dysfunction, including ATP depletion. Therefore, lack of cellular energy was equated in our model to a state of cellular fatigue (Han G et al, The mitochondrial complex I inhibitor rotenone induces endoplasmic reticulum stress and activation of GSK-3β in cultured rat retinal cells, Invest Ophthalmol Vis Sci. 31; 55(9):5616-28, 2014). These cultures are treated during the reconstruction with 0.1% E1 Myrciaria extract (volume/volume), i.e. diluted 1/1000th or 1% (volume/volume), i.e. diluted 1/100th in the culture medium.
# Protocol: On day 12 of epidermal reconstruction, rotenone is added to the culture medium. A control condition is maintained without adding rotenone but changing the culture medium anyway. After 3 h incubation with the inhibitor, the medium is changed to a new medium containing 0.1% E1 Myrciaria extract and the epidermis is incubated again for 48 h. The placebo condition contains PBS (phosphate buffer saline) in the culture medium. The morphology of the skin is then observed by a Haematoxylin-Eosin (HE) staining. […]
# [2] = system: PFKFB3 (6-phosphofructo-2-kinase/fructose-2,6-biphosphatase 3); experiment: PFKFB3 expression on reconstructed epidermis in tired condition (immunofluorescence); type: cell-based, human; settings: rotenone alone
# Description: The aim of this study is to determine the level of expression of PFKFB3 (6-phosphofructo-2-kinase/fructose-2,6-biphosphatase 3) in a model of “tired” reconstructed human skin.
# PFKFB3 is involved in the glycolysis process. It is an inducible enzyme that is expressed by the active epithelial cells of the epidermis. It enables the activation of the enzyme PFK-1 (phosphofructokinase-1), which limits this glycolysis process.
# To obtain “tired” skin, this is reconstructed using adult donor keratinocytes and a respiratory chain inhibitor (rotenone) to create a lack of energy (see example 6). These cultures are treated during reconstruction with 0.1% E1 Myrciaria extract (volume/volume), i.e. diluted 1/1000th in the culture medium.
# Protocol: On day 12 of epidermal reconstruction, rotenone is added to the culture medium. A control condition is maintained without adding rotenone but changing the culture medium anyway. After 3 h incubation with the inhibitor, the medium is changed to a new medium containing 0.1% E1 Myrciaria extract and the epidermises are incubated again for 48 h. […]
# For staining, the cuts are dewaxed by xylene and ethanol baths and then rinsed. […] The cuts are then examined under an Epi-fluorescence microscope (Zeiss Axiovert 200M microscope). A quantification of the fluorescence, using Volocity® image analysis software (PerkinElmer, Inc.), is performed from the obtained photographs.
# [3] = system: creatine kinase; experiment: Creatine kinase activity on "tired" dermal fibroblast cultures; type: cell-based; settings: 0.1% E1 extract or vitamin C at 4 μg/mL, two days of treatment
# Procedure: The aim of this study is to determine the level of creatine kinase activity in dermal fibroblast cultures. The function of this enzyme is to catalyse the conversion of creatine to phosphocreatine, thus providing a rapidly usable energy reserve. This activity measurement is performed on cultures of “tired” dermal fibroblasts treated with 0.1% E1 Myrciaria extract (volume/volume), i.e. diluted 1/1000th in the culture medium. Protocol: Dermal fibroblast cultures are “tired” by a few replications (cells used between passes 15 and 20) and are fed with a nutrient-poor medium (without glucose) for 3 days. These cultures are treated with 0.1% E1 Myrciaria extract, or with vitamin C at 4 μg/mL as a positive control, from the second day of stress and for the remaining two days of stress. Two days after the start of treatment, a measurement of creatine kinase activity is performed using a kit (Abcam—ref: ab155901). For this purpose, the fibroblasts are detached with the CK buffer contained in the kit, recovered and centrifuged at 4000 g for 5 min at 4° C. The activity is then measured for each sample according to the kit protocol. Kinetics are obtained by a colorimetric reading with the Synergy 2 spectrometer (Biotek) coupled to Gen5 software.
Structure (SMILES),morphology of reconstructed epidermis versus control (HE staining) [1],PFKFB3 expression change compared to unstressed epidermises [2],"creatine kinase activity increase compared to untreated ""tired"" cells [3]"
C=C(C)[C@H]1Cc2c(ccc3c2O[C@@H]2COc4cc(OC)c(OC)cc4[C@@H]2C3=O)O1 [rotenone],thinner epidermis than the control and a more damaged basal layer,−20%,
O=C1O[C@H]([C@@H](O)CO)C(O)=C1O [vitamin C],,,+44%
